The test system of one test is S. aureus. Also noted: method as in PMID 18313801. Particulars: cited from earlier work.
The next test has as its system E. coli (ATCC 25922). In words: Antibacterial assay, broth microdilution MIC. It is filed as cell-based, Escherichia coli. Particulars: Escherichia coli, ATCC25922; E. coli ATCC 25922, 35 °C, 20 h; read-out: MIC E. coli. Here is the method:
(§1) To test antimicrobial properties, a broth microdilution method in 96-well plates was used according to Clinical and Laboratory Standards Institute guidelines[31] and European Committee on Antimicrobial Susceptibility Testing ([…]) recommendations.[32] Bacterial suspensions, equivalent to a 0.5 McFarland turbidity standard, were diluted with cation-adjusted Mueller–Hinton broth with TES buffering (ThermoFisher Scientific) to achieve a final inoculum of 10^5 CFU/mL. Compounds dissolved in 100% DMSO at a concentration of 10 mM were mixed with the inoculum and incubated at 35 °C for 20 h.
On the technique in general: Broth dilution looks for growth in wells or tubes with falling amounts of substance.

Test [1] deals with T1, MurA enzyme from E. coli (Escherichia coli, UniProt P0A749). As to the kind of experiment: MurA dilution assay. Format: biochemical. Particulars: compound at 10 times IC50, 30 min preincubation, then 100-fold dilution. Here is the method:
The enzyme concentration used was the usual concentration in reactivity assays 100-fold (25 μM). After 30 min of preincubation, the mixture was diluted 100-fold, then the previously described reactivity assay was performed using 100 μM PEP.

Test [2] concerns the target T1, MurA enzyme from E. coli. In words: MurA inhibition assay (malachite green, orthophosphate release). Format: biochemical. Particulars: for Hill coefficient, 30 min / IC50: 30 min preincubation; for IC50: read-out: IC50, 30 min. On the procedure: To determine the inhibition of MurA, the colorimetric assay with malachite green was used to measure the release of orthophosphate generated during the reaction.[30] […] Time-dependent inhibition assays were also performed by preincubating MurA with the 200 μM UNAG substrate and target compounds for 30 min at 37 °C before starting the reaction with the addition of the second substrate 100 μM PEP, resulting in a final mixture volume of 50 μL. The reaction was stopped after a 15 min incubation at 37 °C by adding the Biomol reagent (100 μL, Enzo Life Sciences, New York), and the absorbance was measured after 5 min at 650 nm using a microplate reader (BioTek, Synergy H4). The final concentration of DMSO in the reaction mixture was 5% (v/v), and 1 μM fosfomycin was used as a reference in the MurA assay. The percentage of residual activity was calculated in comparison to the negative controls, which contained only 5% DMSO. IC50 values were determined by measuring residual activities at 7 different concentrations of the compounds and calculated using GraphPad Prism (GraphPad Software, San Diego, California).
The initial screening of flavonoids was performed under three different assay conditions: (1) without preincubation, (2) with a 30 min preincubation, and (3) with the addition of dithiothreitol (DTT) along with a 30 min preincubation. These different conditions were necessary to understand the mechanism of inhibition of each flavonoid. […] To distinguish whether the adduct formed between the inhibitor and the enzyme was covalent or noncovalent, the inhibitory activity was tested in the presence of 0.1 mM DTT.

Another test relates to S. aureus (ATCC 29213). As to the kind of experiment: Antibacterial assay, broth microdilution MIC. Format: cell-based, Staphylococcus aureus. Particulars: for MIC: Staphylococcus aureus, ATCC29213, S. aureus ATCC 29213, 35 °C, 20 h, read-out: MIC S. aureus. On the procedure: as §1
Setting [3] is: 100 μM, 30 min preincubation with addition of DTT (0.1 mM), read-out: RA% (residual activity), 30 min + DTT.
[4] abbreviates: 100 μM, without preincubation, read-out: RA% (residual activity), 0 min.

SMILES strings stand for the structures. Values after ≈ are worked out from the molar mass of the structure shown. Like-named read-outs stand apart in the source and are kept apart here.

T1 sequence (P0A749 whole entry): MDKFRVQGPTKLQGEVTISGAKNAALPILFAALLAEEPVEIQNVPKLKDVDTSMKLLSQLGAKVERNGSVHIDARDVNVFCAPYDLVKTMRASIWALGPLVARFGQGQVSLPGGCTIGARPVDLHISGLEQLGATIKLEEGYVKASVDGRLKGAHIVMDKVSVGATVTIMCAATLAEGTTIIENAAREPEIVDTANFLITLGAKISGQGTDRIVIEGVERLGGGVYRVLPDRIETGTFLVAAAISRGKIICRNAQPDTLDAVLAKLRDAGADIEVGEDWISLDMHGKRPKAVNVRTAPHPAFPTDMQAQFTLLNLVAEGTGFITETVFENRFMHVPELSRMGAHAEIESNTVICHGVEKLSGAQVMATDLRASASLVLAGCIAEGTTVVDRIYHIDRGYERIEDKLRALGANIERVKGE

With `O=c1cc(-c2ccc(O)c(O)c2)oc2cc(O)cc(O)c12` [Compound 17, luteolin], in the test on S. aureus, the “antibacterial activity against S. aureus, previous report” value is 50 µg/mL. Besides, the MIC (usually the smallest concentration in the dilution series that meets the test's criterion for growth inhibition) is above 250 µM in the test with E. coli (ATCC 25922) and 125 µM (≈ 35.8 µg/mL) with S. aureus (ATCC 29213). Also, the “RA% (residual activity), dilution assay” value on MurA enzyme from E. coli [1] is reported as 91%. Moreover, the remaining activity at 100 µM on MurA enzyme from E. coli [2] (setting [3]) turned out to be 96%; on MurA enzyme from E. coli [2] (setting [4]) it was 68%. Further, on MurA enzyme from E. coli [2], the “Hill coefficient, 30 min” value was determined as 1.3. Moreover, the IC50 – broadly, the concentration needed to halve the response being measured – at MurA enzyme from E. coli [2] was found to be 41.5 µM. For the same compound, the “inhibitory activity on MurA in at least one of the three assays” value on MurA enzyme from E. coli [2] (residual activity at 100 μM, threshold 50% RA, no preincubation, 30 min preincubation, or 30 min + DTT) was “showed inhibitory activity”. For the same compound, the “inhibition of S. aureus growth” value with S. aureus (ATCC 29213) (broth microdilution) is given as “weak inhibition”.

For `COc1cc(O)cc2c1C(=O)C[C@@H](c1ccccc1)O2` [Compound 48, (−)-alpinetin], the MIC with E. coli (ATCC 25922) and in the test on S. aureus (ATCC 29213) was above 250 µM in each case. At MurA enzyme from E. coli [1], the “RA% (residual activity), dilution assay” value was determined as 93%. The “time-dependent inhibition: inactive without preincubation, activity after 30 min of preincubation” value on MurA enzyme from E. coli [2] (100 μM, 0 min vs 30 min preincubation) is on record as “active after 30 min of preincubation”. Moreover, the remaining activity at 100 µM was determined as 102% at MurA enzyme from E. coli [2] (setting [3]) and 66% on MurA enzyme from E. coli [2] (setting [4]). In addition, the “Hill coefficient, 30 min” value on MurA enzyme from E. coli [2] worked out at 1.6. In addition, the IC50 on MurA enzyme from E. coli [2] came out at 57 µM.
